{
  "source": "the supplement of paper PMC11208160",
  "data": [
    {"test": "recombinant UMI read abundance after kanamycin selection (control-corrected) (log10(CPM+1)); higher = more efficient recombination; extreme values may be limits of the assay; sequences stand for … in AGTGCAGAGAAAATCGGCCAGTTTTCTCTGCCTGCAGTCCGCATGCCGTGGGACCCCTTGGGTTCTAACCTGTTGCCTAGATTTATGCAGCGGACTGCCTTTCTCCCAAAGTGATAAACCGG…AGGTTGGTTTCACT; site = the 11-nt donor", "outline": "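Sequencing read counts were converted to CPM, averaged over two replicates and scaled by control-derived factors. Results are given as log10(CPM+1). The reads covered the donor–target junction of recombinant UMIs from a pooled Escherichia coli screen of donor and donor-binding-loop pairs for the IS621 bridge recombinase.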", "values": [
      {"sequence": "GTGAATGCATGGACCGGTTTTCCCGGTAATCCGTATTTGGT (site GTGCATGCTAC)", "recombinant UMI read abundance (log10)": 0.318},
      {"sequence": "GTGAATGCATGGACCGGTTTTCCCGGTAATCCGTATTTGGT (site GTGGATGCTAC)", "recombinant UMI read abundance (log10)": 1.94},
      {"sequence": "GTGAATGCATGGACCGGTTTTCCCGGTAATCCGTATTTGGT (site GTGTATGCTAC)", "recombinant UMI read abundance (log10)": 1.4},
      {"sequence": "GTGACGCCATGGACCGGTTTTCCCGGTAATCCGTATTTGTG (site GTGACGCCTCA)", "recombinant UMI read abundance (log10)": 0},
      {"sequence": "GTGAGTACATGGACCGGTTTTCCCGGTAATCCGTATTTGAG (site GTGAGTACTCT)", "recombinant UMI read abundance (log10)": 1.75},
      {"sequence": "GTGAGTGCATGGACCGGTTTTCCCGGTAATCCGTATTTGAG (site GTGAGTGCTCT)", "recombinant UMI read abundance (log10)": 2.12},
      {"sequence": "GTGATAACATGGACCGGTTTTCCCGGTAATCCGTATTTGGC (site GTGATAACTGC)", "recombinant UMI read abundance (log10)": 2.59},
      {"sequence": "GTGATGACATGGACCGGTTTTCCCGGTAATCCGTATTTGGC (site GTGATGACTGC)", "recombinant UMI read abundance (log10)": 2.09},
      {"sequence": "GTGATGCCATGGACCGGTTTTCCCGGTAATCCGTATTTGAT (site GTGATGCCTAT)", "recombinant UMI read abundance (log10)": 1.41},
      {"sequence": "GTGATGTCATGGACCGGTTTTCCCGGTAATCCGTATTTGGA (site GTGATGTCTTC)", "recombinant UMI read abundance (log10)": 2.57},
      {"sequence": "GTGCACGCATGGACCGGTTTTCCCGGTAATCCGTATTTGGT (site GTGCAAGCTAC)", "recombinant UMI read abundance (log10)": 0.553},
      {"sequence": "GTGCACGCATGGACCGGTTTTCCCGGTAATCCGTATTTGGT (site GTGCACGCTAC)", "recombinant UMI read abundance (log10)": 1.75},
      {"sequence": "GTGCACGCATGGACCGGTTTTCCCGGTAATCCGTATTTGGT (site GTGCAGGCTAC)", "recombinant UMI read abundance (log10)": 0.00611},
      {"sequence": "GTGCACGCATGGACCGGTTTTCCCGGTAATCCGTATTTGGT (site GTGCATGCTAC)", "recombinant UMI read abundance (log10)": 0.0143},
      {"sequence": "GTGCGAGCATGGACCGGTTTTCCCGGTAATCCGTATTTGCA (site GTACGAGCTTG)", "recombinant UMI read abundance (log10)": 2.68},
      {"sequence": "GTGCGAGCATGGACCGGTTTTCCCGGTAATCCGTATTTGCA (site GTCCGAGCTTG)", "recombinant UMI read abundance (log10)": 0.724},
      {"sequence": "GTGCGAGCATGGACCGGTTTTCCCGGTAATCCGTATTTGCA (site GTGCGAGCTTG)", "recombinant UMI read abundance (log10)": 2.81},
      {"sequence": "GTGCGAGCATGGACCGGTTTTCCCGGTAATCCGTATTTGCA (site GTTCGAGCTTG)", "recombinant UMI read abundance (log10)": 1.48},
      {"sequence": "GTGCGTACATGGACCGGTTTTCCCGGTAATCCGTATTTGCT (site GTGCGTACTAG)", "recombinant UMI read abundance (log10)": 2.23},
      {"sequence": "GTGCGTCCATGGACCGGTTTTCCCGGTAATCCGTATTTGTG (site GTGCGTCCTCA)", "recombinant UMI read abundance (log10)": 0.0594},
      {"sequence": "GTGCTACCATGGACCGGTTTTCCCGGTAATCCGTATTTGGG (site GTGCTACCTCC)", "recombinant UMI read abundance (log10)": 0.0107},
      {"sequence": "GTGGAAGCATGGACCGGTTTTCCCGGTAATCCGTATTTGAA (site GTGGAAGCTTT)", "recombinant UMI read abundance (log10)": 2.55},
      {"sequence": "GTGGAGTCATGGACCGGTTTTCCCGGTAATCCGTATTTGTG (site GTGGAGACTCA)", "recombinant UMI read abundance (log10)": 1.34},
      {"sequence": "GTGGAGTCATGGACCGGTTTTCCCGGTAATCCGTATTTGTG (site GTGGAGCCTCA)", "recombinant UMI read abundance (log10)": 0.572},
      {"sequence": "GTGGAGTCATGGACCGGTTTTCCCGGTAATCCGTATTTGTG (site GTGGAGGCTCA)", "recombinant UMI read abundance (log10)": 0.00513},
      {"sequence": "GTGGAGTCATGGACCGGTTTTCCCGGTAATCCGTATTTGTG (site GTGGAGTCTCA)", "recombinant UMI read abundance (log10)": 2.76},
      {"sequence": "GTGGCAACATGGACCGGTTTTCCCGGTAATCCGTATTTGCG (site GTGGCAACTCG)", "recombinant UMI read abundance (log10)": 1.03},
      {"sequence": "GTGGCAACATGGACCGGTTTTCCCGGTAATCCGTATTTGTA (site GTGGCAACTTA)", "recombinant UMI read abundance (log10)": 0.85},
      {"sequence": "GTGGGCCCATGGACCGGTTTTCCCGGTAATCCGTATTTGTC (site GTGGGCCCTGA)", "recombinant UMI read abundance (log10)": 0.429},
      {"sequence": "GTGGGCGCATGGACCGGTTTTCCCGGTAATCCGTATTTGGG (site GTGGGCGCTCC)", "recombinant UMI read abundance (log10)": 0.22},
      {"sequence": "GTGTACCCATGGACCGGTTTTCCCGGTAATCCGTATTTGGC (site GTGTACCCTGC)", "recombinant UMI read abundance (log10)": 0.705},
      {"sequence": "GTGTACGCATGGACCGGTTTTCCCGGTAATCCGTATTTGTC (site GTGTACGCTGA)", "recombinant UMI read abundance (log10)": 2.81},
      {"sequence": "GTGTTGACATGGACCGGTTTTCCCGGTAATCCGTATTTGTG (site GTGTTGACTCA)", "recombinant UMI read abundance (log10)": 1.33},
      {"sequence": "GTTAAAGCATGGACCGGTTTTCCCGGTAATCCGTATTTGTA (site GTTAAAGCTTA)", "recombinant UMI read abundance (log10)": 2.59}
    ]}
  ]
}
